Laboratory results: article PMC11945486, “TAS1R2/TAS1R3 Single-Nucleotide Polymorphisms Affect Sweet Taste Receptor Activation by Sweeteners: The SWEET Project” (Nutrients, 2025)

Biological target: T1, human TAS1R2-S212G (subunit alone) (Homo sapiens, UniProt Q8TE23, S212G)
T1 construct: expressed in transfected cells; host or cells: HEK293T-Gα16gust44
T1 sequence (Q8TE23 20-839 S212G): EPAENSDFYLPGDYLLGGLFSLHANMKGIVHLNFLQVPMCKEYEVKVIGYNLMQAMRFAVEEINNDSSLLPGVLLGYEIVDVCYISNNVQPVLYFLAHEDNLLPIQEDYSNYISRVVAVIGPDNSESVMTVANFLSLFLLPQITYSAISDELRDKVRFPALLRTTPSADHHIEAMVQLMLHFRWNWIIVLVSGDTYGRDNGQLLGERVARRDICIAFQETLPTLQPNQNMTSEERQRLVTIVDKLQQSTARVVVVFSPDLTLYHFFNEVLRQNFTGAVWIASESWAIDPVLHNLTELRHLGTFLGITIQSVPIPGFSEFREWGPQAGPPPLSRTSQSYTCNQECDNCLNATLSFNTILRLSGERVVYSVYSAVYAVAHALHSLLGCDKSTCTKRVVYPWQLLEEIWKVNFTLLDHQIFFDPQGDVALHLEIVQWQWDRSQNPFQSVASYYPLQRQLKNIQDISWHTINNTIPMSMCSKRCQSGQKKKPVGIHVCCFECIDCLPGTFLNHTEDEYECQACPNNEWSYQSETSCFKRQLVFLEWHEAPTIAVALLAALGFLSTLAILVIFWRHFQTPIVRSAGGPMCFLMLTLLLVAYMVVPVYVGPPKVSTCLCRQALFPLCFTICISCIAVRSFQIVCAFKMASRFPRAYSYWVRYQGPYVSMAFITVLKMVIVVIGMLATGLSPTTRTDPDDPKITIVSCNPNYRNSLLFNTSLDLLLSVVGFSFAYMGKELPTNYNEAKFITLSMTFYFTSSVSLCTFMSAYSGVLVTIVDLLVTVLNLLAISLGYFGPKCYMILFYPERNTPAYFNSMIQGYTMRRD
Assay: Calcium mobilisation assay, TAS1R2-S212G subunit alone
Assay type: cell-based
From the text: The coding sequences for TAS1R2 and TAS1R3 were commercially synthesised, and the human codon was optimised for expression in human cells. The coding sequences of human TAS1R2 and TAS1R3 were subcloned and inserted into the mammalian expression vectors pcDNA6/myc-HisA and pcDNA4/myc-HisA (Invitrogen; Thermo Fisher Scientific; Illkirch, France) between the EcoRI and NotI restriction sites, generating the plasmids pcDNA6-TAS1R2 and pcDNA4-TAS1R3, respectively. To increase protein expression in mammalian cells, an upstream start codon was used, which was a sequence called MAX, corresponding to the QBI SP163 element also described in pcDNA4-HisMax (Invitrogen; Thermo Fisher Scientific; Illkirch, France). To measure the expression level of the receptor by immunohistochemistry, we used the FLAG sequence ([…]) in the C-terminal position, which encodes the FLAG tag epitope. […]
The HEK293T cells were kindly provided by Jay P. Slack (Givaudan Flavors Corporation; Cincinnati, OH, USA). […] The fluorescence intensity was measured for 90 s (excitation 488 nm, emission 510 nm) in an automated fluorometric FlexStation®3 Multi-Mode microplate reader (Molecular Devices; San Jose, CA, USA). […] The Ca^2+ changes were expressed as fractional changes in fluorescent light intensity: ΔF/F = (F − F0)/F0, where F was the fluorescent light intensity at each point, and F0 was the value of emitted fluorescent light prior to stimulus application. To calculate dose–response relationships, the changes in fluorescence upon stimulus application were averaged, mock-subtracted and baseline-corrected. […] The half-maximal effective concentrations (EC50 values) and maximal signal amplitudes were calculated using SigmaPlot software (version 15.0) (Systat Software; San Jose, CA, USA).
For in vitro calcium mobilisation assay performed on hTAS1R2-SNPs, hTAS1R3-SNPs and mTAS1R3-I60T, 6 to 7 concentrations were tested for each sweet compound, plus buffer alone. All concentration–receptor combinations were measured in duplicate, and each experiment was repeated at least 4 times (8 wells/concentration). […]

Compound: C=C(C)[C@@H]1CC=C(/C=N/O)CC1 [Perillartine, perillartine]
- EC50: 178 ± 22.7 µM
- R1 = Variant EC50/WT EC50: 2.0
- Max ΔF/F0 (maximal signal amplitude): 0.47 ± 0.02
